Results published in ChEMBL document CHEMBL5034023, “Development of Multifunctional and Orally Active Cyclic Peptide Agonists of Opioid/Neuropeptide FF Receptors that Produce Potent, Long-Lasting, and Peripherally Restricted Antinociception with Diminished Side Effects” (J Med Chem, 2021).
Bridge positions count the residues as written; N and C are the ends. Square brackets hold non-standard residues; d marks the D form. Peptide text beside a SMILES is read from it. NMeF = CN[C@@H](Cc1ccccc1)C(=O)O

What was measured:
[1] = MRT (0 to infinity) in Kunming mouse at 868.1 nmol/kg, po measured up to 120 mins by LC-MS/MS analysis; assay type: ADME, organism-based; details: in vivo
Mus musculus = experiment: Antinociceptive activity against sc dosed Kunming mouse model of thermal-induced nociception assessed as fold shift in duration of analgesic effect by tail-flick test relative to DN-9; assay type: functional

CN1C(=O)CNC(=O)[C@H](NC(=O)[C@@H](N)Cc2ccc(O)cc2)CCCCNC(=O)C[C@@H](C(=O)N2CCC[C@H]2C(=O)N[C@@H](CCC(N)=O)C(=O)N[C@@H](CCCNC(=N)N)C(=O)N[C@@H](Cc2ccccc2)C(N)=O)NC(=O)[C@@H]1Cc1ccccc1 (H-Y[dK]G[NMeF]DPQRF-NH2; lactam 2-5)
MRT inf [1]: 4.65 h
fold change (FC) (Mus musculus): 2.7
